US20250314639A1, “SYSTEMS AND METHODS FOR HIGH THROUGHPUT SINGLE MOLECULE TRACKING IN LIVING CELLS” (EIKON THERAPEUTICS, INC., priority 2022, published 2025)
Entries after “also recorded” stand apart in the source; their conditions may differ.

What was measured:
ER [1] = target: T1, ER (Homo sapiens, UniProt P03372); assay: htSMT change in fbound of Halo-ER in U2OS cells; assay type: cell-based; conditions: for change in fbound of ER: versus DMSO, bioactive screen at 1 μM compound
T1 construct: expressed in transfected cells; host or cells: U2OS
T1 sequence (P03372 1-595): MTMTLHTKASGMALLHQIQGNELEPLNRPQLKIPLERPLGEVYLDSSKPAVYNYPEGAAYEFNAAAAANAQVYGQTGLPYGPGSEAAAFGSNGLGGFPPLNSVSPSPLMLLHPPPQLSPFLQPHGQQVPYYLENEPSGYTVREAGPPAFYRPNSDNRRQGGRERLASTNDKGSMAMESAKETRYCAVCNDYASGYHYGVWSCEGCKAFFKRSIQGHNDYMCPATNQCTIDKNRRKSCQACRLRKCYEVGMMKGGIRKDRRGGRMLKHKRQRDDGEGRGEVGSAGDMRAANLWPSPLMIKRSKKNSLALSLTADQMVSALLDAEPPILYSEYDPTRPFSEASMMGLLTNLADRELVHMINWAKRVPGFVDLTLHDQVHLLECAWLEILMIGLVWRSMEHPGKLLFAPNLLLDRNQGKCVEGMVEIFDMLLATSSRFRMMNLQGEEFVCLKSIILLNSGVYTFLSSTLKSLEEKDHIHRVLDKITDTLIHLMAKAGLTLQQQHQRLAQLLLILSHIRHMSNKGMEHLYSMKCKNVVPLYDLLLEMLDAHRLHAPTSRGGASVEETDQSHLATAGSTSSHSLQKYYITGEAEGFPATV

GR = target: T2, GR (Homo sapiens, UniProt P04150); assay: htSMT fbound of GR-HaloTag in U2OS cells; assay type: cell-based; conditions: 1 μM antagonist, singly or co-administered with the cognate agonist
T2 construct: Because U2OS cells express GR endogenously; endogenous in cells; host or cells: U2OS (CRISPR/Cas9 knock-in at the endogenous locus)
T2 sequence (P04150 1-777): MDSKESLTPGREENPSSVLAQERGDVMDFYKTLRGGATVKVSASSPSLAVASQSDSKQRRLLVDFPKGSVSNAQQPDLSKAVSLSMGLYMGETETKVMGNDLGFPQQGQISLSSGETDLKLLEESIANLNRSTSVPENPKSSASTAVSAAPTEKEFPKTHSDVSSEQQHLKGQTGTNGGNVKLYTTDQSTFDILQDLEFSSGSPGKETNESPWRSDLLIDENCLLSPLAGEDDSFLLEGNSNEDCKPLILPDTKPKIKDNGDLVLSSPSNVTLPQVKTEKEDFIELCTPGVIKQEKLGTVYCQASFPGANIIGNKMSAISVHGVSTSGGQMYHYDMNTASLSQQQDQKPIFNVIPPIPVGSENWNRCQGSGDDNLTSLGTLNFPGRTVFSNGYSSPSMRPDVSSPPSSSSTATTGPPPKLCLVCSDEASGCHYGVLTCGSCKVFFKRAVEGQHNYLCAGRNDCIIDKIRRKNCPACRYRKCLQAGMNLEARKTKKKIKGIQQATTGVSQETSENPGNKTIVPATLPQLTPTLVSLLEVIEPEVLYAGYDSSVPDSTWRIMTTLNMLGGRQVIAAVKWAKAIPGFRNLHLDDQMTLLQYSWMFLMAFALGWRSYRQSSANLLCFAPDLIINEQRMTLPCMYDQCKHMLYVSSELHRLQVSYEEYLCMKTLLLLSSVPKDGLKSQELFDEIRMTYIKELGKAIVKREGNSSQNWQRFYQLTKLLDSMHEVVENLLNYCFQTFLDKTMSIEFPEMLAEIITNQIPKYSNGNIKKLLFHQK
Excerpt: Where appropriate, compounds were serially diluted in an Echo Qualified 384-Well Low Dead Volume Source Microplate (0018544, Beckman Coulter) to generate dose-titration source material.

AR = AR (Homo sapiens, UniProt P10275)
ER [2] = target: T1, ER; assay: kinetic SMT (kSMT) of ER after compound addition; assay type: cell-based; conditions: for t1/2 of increase in fbound: 100 nM compound, single exponential fit; for time at which overall effect on ER movement reaches a plateau: FIG. 16C
ER [3] = target: T1, ER; assay: residence time imaging of ER-Halo cells (track length survival); assay type: cell-based; conditions: 100 nM HSP90 inhibition, versus DMSO, FIG. 16E
ER [4] = target: T1, ER; assay: Western blot of ER after 24 hours compound treatment; assay type: cell-based; conditions: 100 nM fulvestrant, MCF7, T47d, Halo-ER U2OS
Experimental: Cells were grown in the same conditions as described previously. […] Cells are lysed in 200 μL 1× Cell Lysis Buffer (catalogue number 9803, Cell Signaling). Protein lysate concentration is then determined using BCA protein assay kit (Catalog number 23225, Pierce™ BCA Protein Assay Kit) following manufacturer instructions. Capillary Western Immunoassay were performed using Jess Protein Simple following manufacturer's instruction (protein simple, USA). Levels of αER (1:100, RM-9101) were normalized to loading control β-tubulin (1:100, NC0244815 LI-COR 92642213, Thermo Fisher). The peaks were analyzed with the Compass software (Protein Simple, USA).

Sequence of AR (P10275 whole entry): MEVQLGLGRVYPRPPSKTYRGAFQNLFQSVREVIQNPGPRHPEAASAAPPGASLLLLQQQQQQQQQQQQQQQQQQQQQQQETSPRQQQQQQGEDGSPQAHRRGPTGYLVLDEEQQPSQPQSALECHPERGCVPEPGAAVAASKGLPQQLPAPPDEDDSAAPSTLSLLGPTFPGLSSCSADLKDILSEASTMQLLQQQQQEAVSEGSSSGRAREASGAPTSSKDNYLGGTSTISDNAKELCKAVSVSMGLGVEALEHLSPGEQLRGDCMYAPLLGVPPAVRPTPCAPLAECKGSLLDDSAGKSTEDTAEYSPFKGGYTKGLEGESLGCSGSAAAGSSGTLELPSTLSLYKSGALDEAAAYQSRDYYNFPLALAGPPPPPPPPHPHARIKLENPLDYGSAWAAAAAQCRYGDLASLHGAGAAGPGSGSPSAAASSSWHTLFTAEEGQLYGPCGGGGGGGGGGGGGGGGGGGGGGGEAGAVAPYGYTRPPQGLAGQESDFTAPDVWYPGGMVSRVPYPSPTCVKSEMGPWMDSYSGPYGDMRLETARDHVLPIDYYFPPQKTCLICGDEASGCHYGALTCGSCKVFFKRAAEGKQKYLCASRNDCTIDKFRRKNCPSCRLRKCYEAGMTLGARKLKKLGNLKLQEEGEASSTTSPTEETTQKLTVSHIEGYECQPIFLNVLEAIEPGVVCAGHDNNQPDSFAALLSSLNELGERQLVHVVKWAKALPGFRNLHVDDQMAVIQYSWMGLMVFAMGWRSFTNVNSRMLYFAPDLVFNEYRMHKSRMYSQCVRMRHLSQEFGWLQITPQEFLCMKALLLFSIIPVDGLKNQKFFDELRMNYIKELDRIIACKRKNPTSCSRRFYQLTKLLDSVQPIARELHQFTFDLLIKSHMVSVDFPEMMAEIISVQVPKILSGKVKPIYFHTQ

change in fbound of ER (ER [1]) | t1/2 of increase in fbound (ER [2]) [min] | time at which overall effect on ER movement reaches a plateau (ER [2]) | Compound | decrease in the total number of long binding events (ER [3]) | also measured
significantly increased fbound |  |  | 4-hydroxytamoxifen |  | maximal increase in fbound of ER (ER [1]; compared with the SERDs fulvestrant and GDC-0927, FIG. 14D): lower maximal increases in fbound
 |  |  | CN(C)c1ccc(C(c2ccc(N(C)C)cc2)c2cc([N+](=O)[O-])ccc2Cl)cc1 [AL082D06] |  | change in chromatin binding (fbound) of GR (GR): decrease in chromatin binding
 |  |  | CC(O)c1cc(C(=O)N[C@@H](C)Cn2ccc(-c3ccc(C#N)c(Cl)c3)n2)[nH]n1 (some centres unmarked) [Darolutamide] |  | change in chromatin binding (fbound) of AR (AR): decrease in chromatin binding
an increase in fbound | 17.5 | plateau after an hour | COc1cccc(-c2cc(F)ccc2[C@H]2Cc3nc(N)nc(C)c3C(=O)N2)n1 [HSP990] | two | 
an increase in fbound | 19.3 | plateau after an hour | CC(C)c1cc(-c2n[nH]c(=O)n2-c2ccc3c(ccn3C)c2)c(O)cc1O [ganetespib] | four | 

Compound | change in fbound of ER (ER [1]) | t1/2 of increase in fbound (ER [2]) [min] | time at which overall effect on ER movement reaches a plateau (ER [2]) | decrease in the total number of long binding events (ER [3]) | also measured
C[C@]12CC[C@@H]3c4ccc(O)cc4C[C@@H](CCCCCCCCC[S+]([O-])CCCC(F)(F)C(F)(F)F)[C@H]3[C@@H]1CC[C@@H]2O (some centres unmarked) [fulvestrant] | caused an increase in fbound; also recorded: significantly increased fbound |  |  |  | ER degradation (western blot) (ER [4]): leads to the degradation of ER
